According to patent US6899886B2, “Acylacetonitriles, process for preparation thereof and miticides containing the same” (Otsuka Chemical Co., Ltd., priority 2000, dated 2005):

Tests used:
Format in all cases: in vivo
two-spotted spider mites [1] = assay: whole plant or invertebrate; conditions: 48 h; 200 ppm sprayed onto kidney bean leaves; after 2 days; read-out: mortality rate of the two-spotted spider mites
Description: A piece of non-woven fabric (4.5×5.5 cm) was suspended inside a plastic cup through an incision made in the lid of the plastic cup. After water was poured into the cup, the cup was covered with the lid. A kidney bean leaf (about 3.5×4.5 cm) was then placed on the sufficiently soaked, non-woven fabric. Another kidney bean leaf with two-spotted spider mites (about 30 mite samples) was placed on top of the first leaf, and the fabric and leaves were placed in a thermostatic chamber having a temperature of 25±2° C. and a humidity of 40%.
Miticidal formulations containing the compound of the invention (200 ppm) were prepared by adding an aqueous solution (100 ppm) of Sorpol 355 (manufactured by Toho Kagaku Co., Ltd.) to a methanol solution of the compound of the invention.
These miticidal formulations were sprayed onto the leaves, and the leaves were air-dried and placed in a thermostatic chamber (25±2° C., humidity 50%). The mortality rate of the two-spotted spider mites was calculated after 2 days.

two-spotted spider mites [2] = assay: Test Example 3: miticidal test on two-spotted spider mites at low concentration; conditions: 20 ppm emulsifiable concentrate, 2 ml sprayed on leaf with 30 female adults; counted 2 days later
Procedure: (§1) • Test compound A: Compound No. 1 in table 3 (the compound of the invention). • Test compound B: Compound No. 2 in table 3 (the compound of the invention). • Test compound C: Compound No. 10 in table 3 (the compound of the invention). • Test compound D: Intermediate No. II-25 disclosed in table 2 on page 101 of Japanese Unexamined Patent Publication No. 158137/1999. (2) Preparation of Emulsifiable Concentrate
(§2) Emulsifiable concentrates were prepared by adding the test compound, acetone and Sorpol 355 (surfactant) to distilled water. These emulsions were set to contain acetone in the proportion of 5 wt. % and Sorpol 355 in the proportion of 0.01 wt. %. The concentration of the test compound was set at 20 ppm.
2 ml of each emulsifiable concentrate prepared above was sprayed onto a piece of a kidney bean leaf (2×4 cm) with 30 female adults of two-spotted spider mites. After being air-dried, the leaf was placed in a thermostatic chamber having a temperature of 25±1° C. The number of live and dead mites was counted 2 days later. The mortality rate was calculated using the following equation: Mortality rate={1−(survival rate in treated area)/(survival rate in untreated area)}×100

two-spotted spider mites [3] = assay: Test Example 4: residual miticidal test on two-spotted spider mites (sprayed kidney bean plant); conditions: 200 ppm, 30 ml sprayed on kidney bean plant, counted 2 days later; for Adjusted mortality rate (%) 3 days after spraying: mites introduced 3 days after spraying; for Adjusted mortality rate (%) 5 days after spraying: mites introduced 5 days after spraying
Procedure: as §1, with “compound E: Compound” for “compound D: Intermediate”, “No. a-683” for “No. II-25”, “table 1-a” for “table 2”, “page 81” for “page 101”, “Emulsifiable Concentration” for “Emulsifiable Concentrate”
as §2, with “200” for “20”
30 ml of each emulsifiable concentrate prepared above was sprayed onto a kidney bean plant (at the stage of true leaf growth) in a 9-cm pot, and air-dried. The pot was placed in a glass greenhouse. Each of the first and second leaves was cut into a piece having a size of 3×5 cm, and 15 female adults of two-spotted spider mite were introduced thereto after 3 and 5 days of the spraying. Those pieces of leaves were placed in a thermostatic chamber having a temperature of 25±1° C. The number of live and dead mites was counted 2 days later. The mortality rate thereof was calculated in the same manner as in test example 3 above.

Apple (fuji) = assay: Test Example 5: phytotoxicity test on field crops; conditions: 20% wettable powder, degree of dilution 1000, 0.4 liters/m^2, 27 days after spraying
Procedure: (§3) The 20% wettable powders obtained in formulation example 2 were diluted to a predetermined degree and sprayed onto crops in a field in an amount of 0.4 liters/m^2. In a predetermined period after spraying, the development of phytotoxicity was observed by the naked eye. As test compounds, test compounds A, B and C above were used.

Apple (jonagold) = assay: Test Example 5: phytotoxicity test on field crops; conditions: 20% wettable powder, degree of dilution 1000, 0.4 liters/m^2, 14 days after spraying
Procedure: as §3

Grape (pione) = assay: Test Example 5: phytotoxicity test on field crops; conditions: 20% wettable powder, degree of dilution 2000, 0.4 liters/m^2, 28 days after spraying
Procedure: as §3

Orange (iyo) = assay: Test Example 5: phytotoxicity test on field crops; conditions: 20% wettable powder, degree of dilution 1000, 0.4 liters/m^2, 40 days after spraying
Procedure: as §3

Pear (hosui) = assay: Test Example 5: phytotoxicity test on field crops; conditions: 20% wettable powder, degree of dilution 2000, 0.4 liters/m^2, 21 days after spraying
Procedure: as §3

Tea (yabukita) = assay: Test Example 5: phytotoxicity test on field crops; conditions: 20% wettable powder, degree of dilution 1000, 0.4 liters/m^2, 21 days after spraying
Procedure: as §3

[4] = system: rice plants, cucumbers, cabbages, spinaches, lettuces, tomatoes, leeks, carrots or kidney bean plants; assay: Test Example 6: phytotoxicity test; conditions: 0.2 liters/m^2
Procedure: As test compounds, test compounds A, B and C above were used. The 20% wettable powders prepared in formulation example 2 were diluted 500 and 1,000 times. These diluted wettable powders were sprayed onto rice plants, cucumbers, cabbages, […], lettuces, tomatoes, leeks, carrots or kidney bean plants in an amount of 0.2 liters/m^2. The development of phytotoxicity was examined by the naked eye 7 and 14 days after the spraying. […] Further, 20% wettable powders using test compound B were diluted 50, 100 and 200 times, and sprayed onto cucumbers, cabbages, leeks or carrots in an amount of 0.2 liters/m^2. The development of phytotoxicity was examined by the naked eye 7 and 14 days after spraying.

Eggplant (senryo) = assay: Test Example 5: phytotoxicity test on field crops; conditions: 20% wettable powder, degree of dilution 1000, 0.4 liters/m^2, 14 days after spraying
Procedure: as §3

Orange (mandarin) = assay: Test Example 5: phytotoxicity test on field crops; conditions: 20% wettable powder, degree of dilution 1000, 0.4 liters/m^2, 40 days after spraying
Procedure: as §3

Orange (sour orange) = assay: Test Example 5: phytotoxicity test on field crops; conditions: 20% wettable powder, degree of dilution 400, 0.4 liters/m^2, 40 days after spraying
Procedure: as §3

[5] = 20% wettable powders diluted 500 and 1,000 times, nine plant kinds, 7 and 14 days after the spraying

SMILES | mortality at 200 ppm (two-spotted spider mites [1]) | mortality rate (two-spotted spider mites [2]) | Adjusted mortality rate (%) 3 days after spraying (two-spotted spider mites [3]) | Adjusted mortality rate (%) 5 days after spraying (two-spotted spider mites [3]) | Phytotoxicity (Apple (fuji)) | Phytotoxicity (Apple (jonagold)) | Phytotoxicity (Grape (pione)) | Phytotoxicity (Orange (iyo)) | Phytotoxicity (Pear (hosui)) | Phytotoxicity (Tea (yabukita)) | development of phytotoxicity [4, 5] | Phytotoxicity (Eggplant (senryo)) | Phytotoxicity (Orange (mandarin)) | Phytotoxicity (Orange (sour orange)) | development of phytotoxicity ([4]; 20% wettable powders diluted 50, 100 and 200 times, cucumbers, cabbages, leeks or carrots, 7 and 14 days after spraying)
COC(=O)C(C#N)(C(=O)c1ccccc1C(F)(F)F)c1ccc(Cl)cc1 (centres unmarked) [Compound No. 30, Methyl 2-(4-Chlorophenyl)-2-(2-Trifluoromethylbenzoyl)Cyanoacetate] | ≥ 50% | – | – | – | – | – | – | – | – | – | – | – | – | – | –
COC(=O)C(C#N)(C(=O)c1ccccc1C(F)(F)F)c1ccc(C(C)(C)C)cc1 (racemic) [Compound No. 1] | – | 100% | 100% | 95% | None | None | None | None | None | None | no development of phytotoxicity was observed | – | – | – | –
CCOC(=O)C(C#N)(C(=O)c1ccccc1C(F)(F)F)c1ccc(C(C)(C)C)cc1 (racemic) [Compound No. 2] | – | 100% | 100% | 93% | None | None | None | None | None | None | no development of phytotoxicity was observed | None | None | None | no development of phytotoxicity was observed
COCCOC(=O)C(C#N)(C(=O)c1ccccc1C(F)(F)F)c1ccc(C(C)(C)C)cc1 (racemic) [Compound No. 10] | – | 100% | 100% | 100% | None | None | None | None | None | None | no development of phytotoxicity was observed | – | – | – | –
